The results in this text go back to patent publication US8618287B2, “Derivatives of triazines and uracils, their preparation and their application in human therapeutics” (Pierre Fabre Medicament, priority 2008, dated 2013).

Molecules are shown by their SMILES.

Test system in one data set: not given
Assay: not given
Details: not given
With `Cn1nc(N2CCN(C(=O)c3ccc(F)cc3C(F)(F)F)CC2)c(=O)n(C)c1=O` [Example 41, 6-[4-(4-fluoro-2-trifluoromethyl-benzoyl)-piperazin-1-yl]-2,4-dimethyl-2H-[1,2,4]triazine-3,5-dione], the melting point is 128 °C.

`Cn1cc(N2CCN(Cc3ccccc3)CC2)c(=O)n(C)c1=O` gave a melting point of 162 °C.

`Cn1nc(N2CCN(C(=O)c3cccc(C(F)(F)F)c3)CC2)c(=O)n(C)c1=O` [Example 44, 2,4-dimethyl-6-[4-(3-trifluoromethyl-benzoyl)-piperazin-1-yl]-2H-[1,2,4]triazine-3,5-dione] yielded a melting point of 92 °C.

With `Cn1nc(N2CCN(C(=O)/C=C/c3ccc([N+](=O)[O-])cc3)CC2)c(=O)n(C)c1=O` [Example 50, 2,4-dimethyl-6-{4-[(E)-3-(4-nitro-phenyl)-acryloyl]-piperazin-1-yl}-2H-[1,2,4]triazine-3,5-dione], the melting point came out at 198 °C.

As for `Cn1nc(N2CCN(C(=O)c3ccccc3Br)CC2)c(=O)n(C)c1=O` [Example 45, 6-[4-(2-bromo-benzoyl)-piperazin-1-yl]-2,4-dimethyl-2H-[1,2,4]triazine-3,5-dione], the melting point was 119 °C.

`Cn1nc(N2CCC(C(=O)c3ccc(F)cc3)CC2)c(=O)n(C)c1=O` [Example 36, 6-[4-(4-fluoro-benzoyl)-piperidin-1-yl]-2,4-dimethyl-2H-[1,2,4]triazine-3,5-dione] registered a melting point of 129 °C.

Consider `O=c1[nH]nc(N2CCC(Oc3ccccc3C(F)(F)F)CC2)c(=O)n1CCCC(F)(F)F` [Example 72, 4-(4,4,4-trifluoro-butyl)-6-[4-(2-trifluoromethyl-phenoxy)-piperidin-1-yl]-2H-[1,2,4]triazine-3,5-dione], for which the melting point amounted to 102 °C.

Molecule `Cn1nc(N2CCN(C(=O)c3cc(C(F)(F)F)ccc3C(F)(F)F)CC2)c(=O)n(C)c1=O` [Example 40, 6-[4-(2,5-Bis-trifluoromethyl-benzoyl)-piperazin-1-yl]-2,4-dimethyl-2H-[1,2,4]triazine-3,5-dione] came in with a melting point of 90 °C.

`COc1ccccc1OC1CCN(c2nn(C)c(=O)n(C)c2=O)CC1` [Example 34, 6-[4-(2-methoxy-phenoxy)-piperidin-1-yl]-2,4-dimethyl-2H-[1,2,4]triazine-3,5-dione] displayed a melting point of 78 °C.

In the case of `CC(C)C(C(=O)N1CCN(c2nn(C)c(=O)n(C)c2=O)CC1)c1ccc(Cl)cc1` (stereo not shown) [Example 49, 6-{4-[2-(4-chloro-phenyl)-3-methyl-butyryl]-piperazin-1-yl}-2,4-dimethyl-2H-[1,2,4]triazine-3,5-dione], the melting point came to 58 °C.

For `Cn1nc(N2CCN(C(=O)c3ccccc3)CC2)c(=O)n(C)c1=O` [Example 46, 6-(4-benzoyl-piperazin-1-yl)-2,4-dimethyl-2H-[1,2,4]triazine-3,5-dione], the melting point worked out at 132 °C.

The molecule `Cn1nc(N2CCN(C(=O)c3ccccc3C(F)(F)F)C(=O)C2)c(=O)n(C)c1=O` [Example 53, 2,4-dimethyl-6-[3-oxo-4-(2-trifluoromethyl-benzoyl)-piperazin-1-yl]-2H-[1,2,4]triazine-3,5-dione] showed a melting point of 90 °C.

As to `Cc1ccccc1C(=O)N1CCN(c2nn(C)c(=O)n(C)c2=O)CC1` [Example 43, 2,4-dimethyl-6-[4-(2-methyl-benzoyl)-piperazin-1-yl]-2H-[1,2,4]triazine-3,5-dione], the melting point came out at 60 °C.

Turning to `Cn1nc(N2CCN(C(=O)Oc3cccc(C(F)(F)F)c3)CC2)c(=O)n(C)c1=O` [Example 51, 4-(2,4-dimethyl-3,5-dioxo-2,3,4,5-tetrahydro-[1,2,4]triazin-6-yl)-piperazine-1-carboxylic Acid 3-trifluoromethyl-phenyl Ester], the melting point is 93 °C.

As for `Cn1nc(N2CCC(Oc3ccccc3C(F)(F)F)C2)c(=O)n(C)c1=O` (stereo not shown) [Example 37, 2,4-dimethyl-6-[3-(2-trifluoromethyl-phenoxy)-pyrrolidin-1-yl]-2H-[1,2,4]triazine-3,5-dione], the melting point turned out to be 84 °C.

Take `Cn1nc(N2CCN(c3cccc(C(F)(F)F)c3)CC2)c(=O)n(C)c1=O`: the melting point came to 163 °C.

In turn, `Cn1nc(N2CCC(Oc3cc(F)ccc3Cl)CC2)c(=O)[nH]c1=O` [Example 90, 6-(4-(2-chloro-5-fluorophenoxy)piperidin-1-yl)-2-methyl-1,2,4-triazine-3,5(2H, 4H)-dione] displayed a melting point of 172 °C.

In turn, `Cn1nc(N2CCC(Oc3ccccc3)C2)c(=O)n(C)c1=O` (stereo not shown) [Example 38, 2,4-dimethyl-6-(3-phenoxy-pyrrolidin-1-yl)-2H-[1,2,4]triazine-3,5-dione] registered a melting point of 80 °C.

Molecule `Cn1cc(N2CCN(C(=O)c3ccccc3C(F)(F)F)CC2)c(=O)n(C)c1=O` [Example 62, 1,3-dimethyl-5-[4-(2-trifluoromethyl-benzoyl)-piperazin-1-yl]-1H-pyrimidine-2,4-dione] registered a melting point of 163 °C.

In the case of `Cn1c(=O)c(N2CCC(Oc3ccccc3C(F)(F)F)CC2)nn(C2Cc3ccccc3C2=O)c1=O` (stereo not shown) [Example 87, 4-methyl-2-(1-oxo-indan-2-yl)-6-[4-(2-trifluoromethyl-phenoxy)-piperidin-1-yl]-2H-[1,2,4]triazine-3,5-dione], the melting point amounted to 110 °C.

On to `Cn1nc(N2CCC(Cc3cc(C(F)(F)F)ccc3F)CC2)c(=O)n(C)c1=O` [Example 39, 6-[4-(2-fluoro-5-trifluoromethyl-benzyl)-piperidin-1-yl]-2,4-dimethyl-2H-[1,2,4]triazine-3,5-dione], for which the melting point is 116 °C.

The target in the next data set is T1, Human SCD-1 (Homo sapiens, UniProt O00767).
T1 construct: adding 125 μg of microsomal fraction of HepG2 cells; host or cells: HepG2 human hepatocarcinoma cells (microsomal fraction)
T1 sequence (O00767 1-359): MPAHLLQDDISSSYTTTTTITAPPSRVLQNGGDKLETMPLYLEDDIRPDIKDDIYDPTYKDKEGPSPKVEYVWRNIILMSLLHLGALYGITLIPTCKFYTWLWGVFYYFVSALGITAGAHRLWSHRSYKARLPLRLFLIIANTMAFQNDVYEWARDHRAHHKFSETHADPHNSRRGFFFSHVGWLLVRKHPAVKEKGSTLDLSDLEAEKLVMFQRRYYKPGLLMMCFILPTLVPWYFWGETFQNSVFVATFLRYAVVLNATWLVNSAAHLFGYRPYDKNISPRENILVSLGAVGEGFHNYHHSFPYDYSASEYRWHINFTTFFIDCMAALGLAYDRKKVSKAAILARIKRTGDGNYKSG
In words: Human SCD-1 enzymatic activity from microsomes of HepG2 cells (conversion of stearic acid into oleic acid). It is filed as biochemical. Particulars: 10 μM compound; microsomal fraction of HepG2 cells; relative to carrier 0.1% DMSO; read-out: HSCD-1 (HEPG2) % inh. (10 μM). As for the experimental part: In vitro: Human SCD-1 enzymatic activity from microsomes of HepG2 cells after treatment with inhibitory compounds (inhibition %).
Human hepatocarcinoma HepG2 cells (ATCC, HB-8065) are grown to confluence and then trypsinized. The cell pellet is taken up in 10 mM Tris buffer (pH 7.4), saccharose (250 mM) DTT (1 mM) and then the cells are lyzed by sonication. The microsomes are obtained after centrifugation at 10,000 g for 20 minutes a 4° C. followed by centrifugation of the supernatant at 100,000 g for 60 minutes a 4° C. The pellet is taken up in 10 mM Tris buffer (pH 7.4) saccharose (250 mM) at 4° C. and the microsomal proteins are assayed and stored at −196° C. (liquid nitrogen).
The enzymatic reaction measures the conversion of stearic acid (a C18:0 fatty acid) into oleic acid (C18:1 fatty acid) by SCD-1. The enzymatic reaction is started by adding 125 μg of microsomal fraction of HepG2 cells to tubes (total reaction volume of 500 μl) containing 62 μM of stearic acid (45 μM of stearic acid and 17 μM of [^14C] stearic acid) in a phosphate buffer at 100 mM (pH 7.16) with 7.2 mM of ATP, 0.54 mM of CoA, 6 mM of MgCl2, 0.8 mM of NADH and the inhibitory compound or the carrier (0.1% DMSO). The tubes are incubated for 20 minutes at 37° C. and the enzymatic reaction is then stopped by adding KOH (12%) and saponification for 30 minutes at 80° C. After acidification (3N HCl), the fatty acids are extracted twice with ethyl ether, evaporated under nitrogen before being taken up with a methanol/dichloromethane (3:1) mixture. The product of the reaction (C18:1) is separated from the substrate of the reaction (C18:0) by HPLC (Perkin Elmer, C18 reverse phase column) coupled to a on-line radioactivity detector (FlowOne). Enzymatic activity is calculated in picomoles of stearic acid converted into oleic acid per minute and per mg of protein. For each inhibitory compound, an inhibition % is determined relatively to the reference enzymatic activity (carrier 0.1% DMSO). Sterculic acid is the reference inhibitory compound (Gomez F. E., Bauman D. E., Ntambi J. M., Fox B. G. Effects of sterculic acid on stearoyl-CoA desaturase in differentiating […] adipocytes. Biochem Biophys Res Commun. 300 316-326 (2003)).
For `Cn1c(=O)[nH]nc(N2CCN(Cc3ccc(F)cc3C(F)(F)F)CC2)c1=O` [Example 71, 6-[4-(4-fluoro-2-trifluoromethyl-benzyl)-piperazin-1-yl]-4-methyl-2H-[1,2,4]triazine-3,5-dione], the inhibition at 10 µM was 50%.

In the case of `CCCCn1nc(N2CCC(Oc3ccccc3C(F)(F)F)CC2)c(=O)n(C)c1=O` [Example 13, 2-butyl-4-methyl-6-[4-(2-trifluoromethyl-phenoxy)-piperidin-1-yl]-2H-[1,2,4]triazine-3,5-dione], the inhibition at 10 µM was 75%.

With `CCCCn1nc(N2CCN(C(=O)c3ccccc3C(F)(F)F)CC2)c(=O)n(C)c1=O` [Example 74, 2-butyl-4-methyl-6-[4-(2-trifluoromethyl-benzoyl)-piperazin-1-yl]-2H-[1,2,4]triazine-3,5-dione], the inhibition at 10 µM was found to be 60%.

For `Cn1nc(N2CCC(Oc3ccccc3F)CC2)c(=O)n(C)c1=O` [Example 28, 6-[4-(2-fluoro-phenoxy)-piperidin-1-yl]-2,4-dimethyl-2H-[1,2,4]triazine-3,5-dione], the inhibition at 10 µM came to 50%.

Turning to `Cn1c(=O)c(N2CCC(Oc3ccccc3C(F)(F)F)CC2)nn(CCCC(=O)c2cccs2)c1=O` [Example 19, 4-methyl-2-(4-oxo-4-thiophen-2-yl-butyl)-6-[4-(2-trifluoromethyl-phenoxy)-piperidin-1-yl]-2H-[1,2,4]triazine-3,5-dione], the inhibition at 10 µM turned out to be 57%.

`CNC(=O)Cn1nc(N2CCC(Oc3ccccc3C(F)(F)F)CC2)c(=O)n(C)c1=O` [Example 14, N-methyl-2-{4-methyl-3,5-dioxo-6-[4-(2-trifluoromethyl-phenoxy)-piperidin-1-yl]-4,5-dihydro-3H-[1,2,4]triazin-2-yl}-acetamide]: the inhibition at 10 µM was found to be 74%.

Turning to `Cn1c(=O)c(N2CCC(Oc3ccccc3Cl)CC2)nn(CCC#N)c1=O` [Example 23, 3-{6-[4-(2-chloro-phenoxy)-piperidin-1-yl]-4-methyl-3,5-dioxo-4,5-dihydro-3H-[1,2,4]triazin-2-yl}-propionitrile], the inhibition at 10 µM was determined as 73%.

By melting point is commonly meant the temperature of the solid-liquid transition.
